Where “and” joins values, the source holds several entries; their conditions need not be identical. Equal values may be shown once. Read-outs that look alike come from different tables or passages of the source. Bridge positions count the residues as written; N and C are the ends. Square brackets hold non-standard residues; d marks the D form. Ends that are not written are not given here. Peptide text beside a SMILES is read from it. * marks the point of attachment. 2Nal = N[C@@H](Cc1ccc2ccccc2c1)C(=O)O; Benzoyl(4-F) = O=C(c1ccc(F)cc1)*; Cit = NC(=O)NCCC[C@H](N)C(=O)O

The subject of data set [1] is SupT1 cells.
For data set [2], the system named is CXCR4-tropic HIV-1. The conditions noted are these: read-out: IC50 HIV-1, TZM-bl cells.
Data set [3] deals with T1, CXCR4 (Homo sapiens, UniProt P61073). Description: 1D9 control antibody competition on SupT1 cells. The class given is binding. The settings on record: PE-labelled 1D9, SupT1 cells, single experiment.
Description: Small molec ule (a) or peptide
(b, c) ligands were diluted in PBS and added to precooled SupT1 cells. A constant concentration of PE-labelled
1D9-antibod y (or 12G5- APC antibod y in (c)) was added immediately afterward s. After 2 h i ncub atio n in t he d ark,
cells were washed and analyzed by flo w cyto metry.
by mea s uring t he percenta ge o f gated living cells in flo w c ytome tr y upon treatme nt with the inhibitor.
data derived from a single experiment.
For data set [4], the system named is CXCL12 migration. The conditions noted are these: cited from earlier work.
The conditions of data set [5]: 20 µM, up to 60 min, 37 °C, mouse plasma from a single animal.
Description: Next, we evaluated whether the competition assay may be applied to measure peptide degradation in mouse plasma.
Plasma from 6 donors was pooled and stored in aliquots at − 80 °C. Mouse plasma was obtained by heart punctation of BL6 mice after cervical dislocation. Blood was 19:1 diluted with 0.16 M NaEDTA and centrifuged at 2000 rcf for 20 min at 4 °C to obtain plasma.
for 60 min at 37°C. At given time points aliquots were taken and stored at - 80°C. Activity of plasma/peptide was
determined using 12G5- antibody competition assay.
Data set [6] addresses T1, CXCR4. Description: 12G5 antibody competition assay on SupT1 cells. The settings on record: 1, 2 and 4 h incubation, Fig. S2. The class given is binding.
Data set [7] can be described thus: Functional stability in human plasma read out by 12G5 competition. The class given is in vitro ADME. The conditions noted are these: for half-life at 20 µM: human, plasma. The method, then: The t = 0 sample was immediately taken and stored at − 80 °C. Plasma/compound or blood/compound mixture was then transferred to 37 °C and shook at 350 rpm. At given time points samples were taken and stored at − 80 °C. For measuring the functional activity of the plasma/peptide samples, the mixtures were thawed and serially diluted in ice cold PBS (starting with 100% sample). 12G5-APC antibody competition was then performed as described before. Note, that during the competition process the samples are 1:1 diluted with the antibody and the highest plasma concentration on cells was 50%. For blood/peptide functional stability, samples were thawed and centrifuged at 14,000 rpm for 3 min at 4 °C to remove cells and debris. The supernatant was then serially diluted in PBS (starting with 100% sample) and 12G5-antibody competition assay was performed. […] Afterwards cells were washed again and analyzed for bound antibody.
(§1) Statistical analysis was performed in GraphPad Prism (version 8.3.0). IC50 and IC90 curves and the areas under the curves (AUC) were determined by nonlinear regression.

Data set [8] has as its target T1, CXCR4. Description: 12G5 antibody competition assay on SupT1 cells. The class given is binding. The conditions noted are these: for IC50: SupT1 cells, APC-labelled 12G5, 2 h at 4 °C, mean ± SEM of 3 assays; for Ki: calculated from IC50 12G5 by Cheng-Prusoff, Kd of 12G5 151.5 pM. The method, then: Compounds were serially diluted in ice cold PBS and 12G5-APC antibody was diluted in cold PBS containing 1% FCS. […] Plates were incubated at 4 °C in the dark for 2 h. Afterwards cells were washed twice by centrifugation with PBS containing 1% FCS and fixed with 2% paraformaldehyde (PFA). During all pipetting steps, plates were kept cool by using a cooling pad. Antibody binding was analyzed by flow cytometry (FACS CytoFLEX; Beckman Coulter) by determination of the mean fluorescence intensity (MFI) of at least 5.000 cells (50.000 cells per well) or 1.000 cells (5.000 cells per well).
Ki calculation3 Ki=IC50/1+L/Kd
For Ki = inhibitory constant; IC50 = half maximal inhibition for 12G5 binding; [L] = 12G5 concentration; Kd = dissociation constant of 12G5.
as §1

A short description of data set [9]: in vitro. The class given is in vitro ADME, human. The method, then:
Compounds were 150-fold diluted in human plasma or whole human blood to reach final concentrations of 20 µM. The t = 0 sample was immediately taken and stored at − 80 °C. Plasma/compound or blood/compound mixture was then transferred to 37 °C and shook at 350 rpm. At given time points samples were taken and stored at − 80 °C. For measuring the functional activity of the plasma/peptide samples, the mixtures were thawed and serially diluted in ice cold PBS (starting with 100% sample). 12G5-APC antibody competition was then performed as described before. Note, that during the competition process the samples are 1:1 diluted with the antibody and the highest plasma concentration on cells was 50%. For blood/peptide functional stability, samples were thawed and centrifuged at 14,000 rpm for 3 min at 4 °C to remove cells and debris. The supernatant was then serially diluted in PBS (starting with 100% sample) and 12G5-antibody competition assay was performed. After the 2 h incubation, the cells were washed by centrifugation (1.300 rpm, 4 °C) and 50 µL of 1-step-Fix/Lyse solution (Thermo Fisher #00-5333-54) was added for 15 min at room temperature. Afterwards cells were washed again and analyzed for bound antibody.
Statistical analysis was performed in GraphPad Prism (version 8.3.0). IC50 and IC90 curves and the areas under the curves (AUC) were determined by nonlinear regression. For half-life calculations, the IC50 values for each time point as well as the AUCs were analyzed and normalized relative to t = 0. Activities were then determined ((IC50 (t = 0) / IC50 (t)) × 100) for each time point and half-lives determined by a One-Phase-Decay model.

Data set [10] has as its system CXCR4-tropic HIV-1. Set-up: method as in PMID 25921529, PMID 30768790. The conditions noted are these: cited from earlier work.
For data set [11] the following is noted: EPI-X4 sandwich ELISA; cited from earlier work.
In data set [12] the test system is CXCR7. The settings on record: cited from earlier work.
The mark [13] stands for this setting: read-out: IC50 Migration, 100 ng/mL CXCL12, 4 h, mean ± SEM of 3 assays.
The mark [14] stands for this setting: infection rate after 3 days, mean ± SEM of 3 assays.
Where [15] appears, read: 20 µM in pooled human plasma (6 donors), 37 °C, from IC50 relative to t = 0, one-phase decay, read-out: half-life t1/2 in plasma.

T1 sequence (P61073 whole entry): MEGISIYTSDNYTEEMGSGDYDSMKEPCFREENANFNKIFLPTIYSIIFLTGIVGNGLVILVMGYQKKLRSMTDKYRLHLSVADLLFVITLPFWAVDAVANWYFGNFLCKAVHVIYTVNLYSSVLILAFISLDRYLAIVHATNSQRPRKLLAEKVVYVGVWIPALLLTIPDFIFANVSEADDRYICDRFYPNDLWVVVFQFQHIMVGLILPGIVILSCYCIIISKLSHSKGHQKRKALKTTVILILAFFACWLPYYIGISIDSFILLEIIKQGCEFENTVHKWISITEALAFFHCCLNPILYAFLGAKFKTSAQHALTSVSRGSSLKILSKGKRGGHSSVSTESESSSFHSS

As for `N=C(N)NCCC[C@H](NC(=O)[C@@H]1CSSC[C@H](NC(=O)[C@H](Cc2ccc3ccccc3c2)NC(=O)[C@H](CCCNC(=N)N)NC(=O)[C@H](CCCNC(=N)N)NC(=O)c2ccc(F)cc2)C(=O)N[C@@H](Cc2ccc(O)cc2)C(=O)N[C@@H](CCCNC(N)=O)C(=O)N[C@@H](CCCCN)C(=O)N[C@H](CCCCN)C(=O)N2CCC[C@H]2C(=O)N[C@@H](Cc2ccc(O)cc2)C(=O)N[C@@H](CCCNC(=N)N)C(=O)N[C@@H](CCCNC(N)=O)C(=O)N1)C(N)=O` [BKT-140] ({Benzoyl(4-F)}-RR[2Nal]CY[Cit]K[dK]PYR[Cit]CR-NH2; disulfide 4-13; N-terminus and C-terminus assumed), the IC50 came to 932 ± 131 nM in [1] (setting [13]) and 435 ± 153 nM in [2] (setting [14]). The “effect on 1D9 antibody binding” value in data set [3] is “seemed to reduce 1D9 binding”.
As for IVRWSKKVPCVS [EPI-X4 WSC02], the IC50 in data set [1] (setting [13]) was found to be 15800 nM; in data set [1] (read-out: IC50 migration, SupT1 towards CXCL12), 16000 nM; in [2] (setting [14]) it was 257 ± 109 nM; in [8], 290 ± 75 nM. In data set [4], the “IC50 leukemia cell migration towards CXCL12” value was “nanomolar range”. Moreover, in [5], the “inactivation in mouse plasma versus human plasma” value was “more rapid inactivation of the peptide in mouse plasma”. Also, the “IC50, IC90 and AUC after different incubation times” value in data set [6] was “No significant differences”. Moreover, the “12G5-competing activity after 24 h in plasma” value in [7] (20 µM in 99.3% pooled human plasma, 37 °C, 24 h) was “remained partially active”. The “half-life t1/2 in plasma” value is 10 min in [7] (20 µM in pooled human plasma (6 donors), 37 °C, from IC50 relative to t = 0, one-phase decay) and ~ 10 min in data set [7] (20 µM in pooled human plasma (6 donors), 37 °C, from IC50 relative to t = 0, one-phase decay, listed as WCS02). The “inactivation in plasma with L-leucinethiol” value in data set [7] (human plasma pretreated with 300 µM L-leucinethiol (leucyl aminopeptidase inhibitor)) is reported as “largely prevented WSC02 inactivation”. Further, the half-life at 20 µM in [7] (20 µM in plasma of an individual donor, 37 °C, read-out: half-life t1/2 in plasma) is 9.7 min; in data set [7] (setting [15]), 9.7 min; in data set [7] (20 µM in pooled human plasma, 37 °C, from areas under inhibition curves, read-out: half-life t1/2 in plasma from AUC), 9.7 min; in data set [9] (human, 20 µM in whole EDTA blood of an individual donor, 37 °C, read-out: half-life t1/2 in blood) it was 8.9 min. Moreover, the Ki in data set [8] was 111 ± 29 nM. In addition, the “half-life t1/2 in blood” value in data set [9] (20 µM in whole EDTA blood of an individual donor, 37 °C) is 9 min. In addition, in [9] (human, plasma), the “stability in blood compared to plasma” value is “less stable in blood compared to plasma”. The “IC50 CXCR4-tropic HIV-1 infection” value in [10] is on record as “nanomolar range”.
With LVRYTKKVPQVSTPTL [EPI-X4], the “IC50 to suppress CXCL12 migration” value in [4] is recorded as “median micromolar range”. The IC50 was 31000 nM in [2], 31400 nM in data set [2] (setting [14]) and 1780 ± 162 nM in data set [8]. In addition, the half-life in plasma in data set [11] was 17 min and ~ 17 min. Moreover, in [12], the CXCR7 binding entry is given as “does not bind CXCR7”. For the same molecule, the half-life at 20 µM in data set [7] (setting [15]) was found to be 23 min. In addition, the inhibition constant Ki in [8] was 677 ± 62 nM.

One may read the Ki as the equilibrium dissociation constant of an inhibitor or competing ligand from its target.

These data come from article PMC7525492, “Microtiter plate-based antibody-competition assay to determine binding affinities and plasma/blood stability of CXCR4 ligands” (Scientific Reports, 2020).
